Measured values taken from patent US6448204B1, “Herbicidal 2-aryloxy-4-methyl-6-pyrazol-1-yl-pyridines” (BASF Aktiengesellschaft, priority 1999, dated 2002).

How the values were obtained:
Assay type in all cases: in vivo
Stellaria media (STEME) = test: Pre-emergence test; settings: 3 weeks after treatment
Method: (§1) To evaluate their herbicidal activity, compounds according to the invention are tested using a representative range of plants: […] The pre-emergence tests involve spraying a liquid formulation of the compound onto the soil in which the seeds of the plant species mentioned above has recently been sown. The soil used in the tests is a prepared horticultural loam. […] In these tests untreated sown soil are used as controls.

[1] = system: Alopecurus myosuroides (ALOMY); test: Pre-emergence test; settings: 3 weeks after treatment
Method: as §1

[2] = system: Cassia obtusifolia (CASOB); test: Pre-emergence test; settings: 3 weeks after treatment
Method: as §1

[3] = system: Abutilon theophrasti (ABUTH); test: Pre-emergence test; settings: 3 weeks after treatment
Method: as §1

[4] = system: Echinochloa crus-galli (ECHCG); test: Pre-emergence test; settings: 3 weeks after treatment
Method: as §1

[5] = system: Ipomoea hederacea (IPOHE); test: Pre-emergence test; settings: 3 weeks after treatment
Method: as §1

[6] = system: Lolium multiflorum (LOLMU); test: Pre-emergence test; settings: 3 weeks after treatment
Method: as §1

Setaria viridis (SETVI) = test: Pre-emergence test; settings: 3 weeks after treatment
Method: as §1

[7] = system: Matricaria inodora (MATIN); test: Pre-emergence test; settings: 3 weeks after treatment
Method: as §1

[8] = system: Digitaria sanguinalis (DIGSA); test: Pre-emergence test; settings: 3 weeks after treatment
Method: as §1

Zea mays (ZEAMX) = test: Pre-emergence test; settings: crop (corn), 3 weeks after treatment
Method: as §1

[9] = system: thirteen weed species (broadleaf weeds and grasses); test: Pre-emergence test, summary over all weeds; settings: for Number of weed species well / sufficiently controlled: out of thirteen species
Method: as §1

weed species = test: Post-emergence test, summary over all weeds
Method: To evaluate their herbicidal activity, compounds according to the invention are tested using a representative range of plants:
These acetone solutions are diluted with water and the resulting formulations applied at dosage levels equivalent of about 0.025 to 0.4 kg per hectare of test compound per pot. After spraying the plants are placed on greenhouse benches and are cared for in the usual manner, commensurate with conventional greenhouse practices. From 2 to 4 weeks after treatment, the seedling plants are examined and rated according to the rating system provided above.

Cn1nc(C(F)(F)F)cc1Oc1cccc(-n2ccc(C(F)(F)F)n2)n1 [Comparison]
0 (0 - No effect): Assessment rating STEME (pre-emergence application) (Stellaria media (STEME); 0.013 kg/ha) | Assessment rating ALOMY (pre-emergence application) ([1]; 0.013 kg/ha) | Assessment rating CASOB (pre-emergence application) ([2]; 0.013 kg/ha) | Assessment rating CASOB (pre-emergence application) ([2]; 0.025 kg/ha) | Assessment rating ABUTH (pre-emergence application) ([3]; 0.013 kg/ha) | Assessment rating ABUTH (pre-emergence application) ([3]; 0.025 kg/ha) | Assessment rating ECHCG (pre-emergence application) ([4]; 0.013 kg/ha) | Assessment rating IPOHE (pre-emergence application) ([5]; 0.013 kg/ha) | Assessment rating ZEAMX (pre-emergence application) (Zea mays (ZEAMX); 0.013 kg/ha) | Assessment rating ZEAMX (pre-emergence application) (Zea mays (ZEAMX); 0.025 kg/ha)
1 (1 - Trace effect): Assessment rating ALOMY (pre-emergence application) ([1]; 0.025 kg/ha) | Assessment rating IPOHE (pre-emergence application) ([5]; 0.025 kg/ha) | Assessment rating ZEAMX (pre-emergence application) (Zea mays (ZEAMX); 0.100 kg/ha)
six out of thirteen species: Number of weed species well / sufficiently controlled ([9]; 0.100 kg/ha)
0.400 kg/ha: Rate required to obtain the same level of weed control [9]
clearly inferior in activity: Herbicidal activity, overall judgement [9]
5 (5 - Definite injury): Assessment rating CASOB (pre-emergence application) ([2]; 0.400 kg/ha) | Assessment rating ABUTH (pre-emergence application) ([3]; 0.100 kg/ha) | Assessment rating LOLMU (pre-emergence application) ([6]; 0.025 kg/ha)
one species: Number of weed species controlled (weed species; 0.025 kg/ha)
4 (4 - Injury): Assessment rating ALOMY (pre-emergence application) ([1]; 0.100 kg/ha) | Assessment rating ECHCG (pre-emergence application) ([4]; 0.100 kg/ha)
9 (9 - Complete kill): Assessment rating STEME (pre-emergence application) (Stellaria media (STEME); 0.400 kg/ha) | Assessment rating ABUTH (pre-emergence application) ([3]; 0.400 kg/ha) | Assessment rating SETVI (pre-emergence application) (Setaria viridis (SETVI); 0.400 kg/ha) | Assessment rating MATIN (pre-emergence application) ([7]; 0.100 kg/ha) | Assessment rating MATIN (pre-emergence application) ([7]; 0.400 kg/ha) | Assessment rating DIGSA (pre-emergence application) ([8]; 0.013 kg/ha) | Assessment rating DIGSA (pre-emergence application) ([8]; 0.025 kg/ha) | Assessment rating DIGSA (pre-emergence application) ([8]; 0.100 kg/ha) | Assessment rating DIGSA (pre-emergence application) ([8]; 0.400 kg/ha)
8 (8 - Approaching complete kill): Assessment rating STEME (pre-emergence application) (Stellaria media (STEME); 0.025 kg/ha) | Assessment rating STEME (pre-emergence application) (Stellaria media (STEME); 0.100 kg/ha) | Assessment rating ALOMY (pre-emergence application) ([1]; 0.400 kg/ha) | Assessment rating LOLMU (pre-emergence application) ([6]; 0.100 kg/ha) | Assessment rating LOLMU (pre-emergence application) ([6]; 0.400 kg/ha) | Assessment rating SETVI (pre-emergence application) (Setaria viridis (SETVI); 0.100 kg/ha)
7 (7 - Good herbicidal effect): Assessment rating ECHCG (pre-emergence application) ([4]; 0.400 kg/ha) | Assessment rating IPOHE (pre-emergence application) ([5]; 0.400 kg/ha) | Assessment rating MATIN (pre-emergence application) ([7]; 0.025 kg/ha)
2 (2 - Slight effect): Assessment rating CASOB (pre-emergence application) ([2]; 0.100 kg/ha) | Assessment rating ECHCG (pre-emergence application) ([4]; 0.025 kg/ha) | Assessment rating SETVI (pre-emergence application) (Setaria viridis (SETVI); 0.013 kg/ha) | Assessment rating SETVI (pre-emergence application) (Setaria viridis (SETVI); 0.025 kg/ha) | Assessment rating MATIN (pre-emergence application) ([7]; 0.013 kg/ha) | Assessment rating ZEAMX (pre-emergence application) (Zea mays (ZEAMX); 0.400 kg/ha)
ten: Number of weed species well / sufficiently controlled ([9]; 0.400 kg/ha)
four times more active ingredient: Active ingredient required for maize selective weed control relative to the compound of the invention [9]
3 (3 - Moderate effect): Assessment rating IPOHE (pre-emergence application) ([5]; 0.100 kg/ha) | Assessment rating LOLMU (pre-emergence application) ([6]; 0.013 kg/ha)
four species: Number of weed species controlled (weed species; 0.100 kg/ha)
